This note sets out measurements from paper PMC10778824, “New Chalcone Derivatives Containing 2,4-Dichlorobenzenesulfonamide Moiety with Anticancer and Antioxidant Properties” (International Journal of Molecular Sciences, 2023).

In one series the test system is caspase-8. Kind of series: Caspase-Glo 8 activity assay in AGS cells. It counts as cell-based, human. As to conditions: 24 h, relative to DMSO control. The method, then:
The AGS cells were seeded in a 96-well plate (5 × 10^3 cells/well) and treated with compound 5 at concentrations of 1, 5, 7, and 10 µg/mL for 24 h; oxaliplatin at the concentration of 20 µg/mL; and DMSO (1%, v/v). The cells were then treated with reagents from Caspase-Glo 8 Assay or Caspase-Glo 9 Assay (Promega, Madison, WI, USA) and measured with the luminometer Glomax Multi + Detection System (Promega, Madison, WI, USA). The experiments were performed in two independent repeats in three repetitions.

The test system of a further series is cervical cancer HeLa. Kind of series: MTT assay, HeLa cells. Type of series: cell-based, human. The method, then:
(§1) The human gastric adenocarcinoma AGS, cervical cancer HeLa, and acute promyelocytic leukemia HL-60 cells were obtained from the American Type Culture Collection (ATCC, Manassas, VA, USA). Human neonatal fibroblasts were obtained from LGC Standards (Luckenwalde, Germany). The HeLa and AGS lines were cultured in Dulbecco’s modified Eagle’s medium (DMEM) and DMEM/F12 medium, respectively. The HL-60 line was maintained in RPMI-1640 medium. Fibroblasts were cultured in Fibroblast Growth Medium with Supplement Mix. All the media were supplemented with 100 units/mL of penicillin, 100 µg/mL of streptomycin, and 10% (v/v) fetal bovine serum (FBS) (Merck Millipore, Burlington, MA, USA). The cells were incubated at 37 °C and 5% CO2.
(§2) To estimate the cytotoxic effect of the five compounds (4–8), MTT (3-(4,5-dimethylthiazol-2-yl)-2,5-diphenyltetrazolium bromide) assay was used. Oxaliplatin was used as a positive control in this test. All the cell lines were seeded in 96-well plates at a density of 5 × 10^3 cells/well and treated for 24 h with the compounds at concentrations of 0.5–40 µg/mL. Oxaliplatin was tested in the range of 20–400 µg/mL (50–1000 µM). After treatment, the cells were incubated with MTT (0.5 mg/mL; Merck Millipore, Burlington, MA, USA) for 3 h. Then, DMSO was used to dissolve formazan crystals, and the absorbance of the formazan solution was measured with a plate reader (Epoch, BioTek Instruments, Santa Clara, CA, USA). All the results (±standard deviation (SD)) were obtained from six repetitions in at least two independent experiments. The data are expressed as IC50 values (µg/mL).

The subject of series [1] is AGS cells. Briefly: MitoPotential assay (mitochondrial membrane depolarization). It counts as cell-based, human. The note with it: 10 µg/mL, 5 h. The method, then:
The AGS cells were seeded in a 12-well plate (1 × 10^5 cells/well) and incubated with compound 5 at concentrations of 1, 5, and 10 µg/mL; oxaliplatin at the concentration of 40 µg/mL; and DMSO (0.2%, v/v). After 5 h of exposure, the cells were stained with the Muse MitoPotential Assay Kit (Merck Millipore, Burlington, MA, USA) and analyzed with the Muse Cell Analyzer (Merck Millipore, Burlington, MA, USA). The percentage of depolarized live and dead cells was estimated in the experiments, which were independently repeated three times.

The nature of series [2]: Annexin V and dead cell assay (flow cytometry). It counts as cell-based, human. As to conditions: human, AGS cells, 10 µg/mL, read-out: live cells (viability). Here is the method:
(§3) To estimate the viability and induction of apoptosis/necrosis in the population of AGS cells treated with compound 5, the Muse Annexin V and a Dead Cell Assay Kit (Merck Millipore, Burlington, MA, USA) were used. The cells were seeded in 12-well plates (1 × 10^5 cells/well) and incubated with the compound at concentrations of 1, 5, and 10 µg/mL. […] After 24 h, the cells were stained with the kit reagents, namely, annexin V and 7-AAD (7-aminoactinomycin), and analyzed by flow cytometry (Muse Cell Analyzer, Merck Millipore, Burlington, MA, USA). The experiments were performed in three independent repeats.
On the technique in general: Flow cytometry measures light scatter and fluorescence of single cells or particles in a stream.

Series [3] has as its system AGS cells. Briefly: Annexin V and dead cell assay (flow cytometry). Type of series: cell-based, human. As to conditions: 24 h. The method, then: as §3
Series [4] relates to AGS cells. Kind of series: Cell cycle analysis (propidium iodide). It counts as cell-based, human. As to conditions: 48 h. The method, then: The AGS cells were seeded in a 6-well plate (5 × 10^5 cells/well) and incubated with compound 5 at concentrations of 1, 5, and 10 µg/mL for 48 h; oxaliplatin at the concentration of 40 µg/mL; and DMSO (0.2%, v/v). After treatment, the cells were stained with propidium iodide from the Muse Cell Cycle Assay Kit (Merck Millipore, Burlington, MA, USA), and the amount of cells in each phase of the cell cycle was determined using the Muse Cell Analyzer (Merck Millipore, Burlington, MA, USA). The experiment was independently repeated three times.

Series [5] in a line: ABTS radical scavenging assay. As to conditions: concentration of 800 µg/mL. The method, then: The ABTS radical scavenging assay of chalcone derivatives was performed with ascorbic acid as a standard. Different concentrations of samples, dissolved in DMSO, were mixed with 170 μL of ABTS solution (2 mM ABTS diammonium salt and 3.5 mM potassium persulfate), and water was added to a final volume of 300 μL. ABTS solution with DMSO was used as a control. […] ABTS inhibition was calculated according to the following Formula (3):ABTS Inhibition (%) = [(Acontrol − Asample)/Acontrol] × 100%(3)

Series [6] deals with human neonatal fibroblasts. Kind of series: MTT assay, noncancerous fibroblasts. It counts as cell-based. The note with it: Homo sapiens, Fibroblast, 24 h treatment. The method, then:
as §1, §2
(In general: Tetrazolium dyes change colour on reduction, which living cells bring about.)

The target in a further series is T1, neutrophil elastase (Sus scrofa, UniProt P00772).
T1 construct: purchased Sigma Chemical Co. (St. Louis, MO, USA)
T1 sequence (P00772 27-266): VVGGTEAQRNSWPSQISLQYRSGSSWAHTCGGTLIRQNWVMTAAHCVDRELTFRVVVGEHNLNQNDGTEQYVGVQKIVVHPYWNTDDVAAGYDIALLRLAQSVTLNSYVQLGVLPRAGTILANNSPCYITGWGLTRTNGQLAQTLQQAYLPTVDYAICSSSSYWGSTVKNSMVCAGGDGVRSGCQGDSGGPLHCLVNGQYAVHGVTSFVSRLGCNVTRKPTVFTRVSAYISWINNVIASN
Kind of series: Elastase assay (SANA substrate). Type of series: biochemical, porcine. As to conditions: Tris-HCl pH 8.0, SANA substrate; read-out: neutrophil elastase inhibition IC50 (converted). The method, then:
The elastase analysis was performed according to the spectrophotometric method with oleanolic acid as a reference. The reaction mixture (Tris-HCl buffer (pH 8.0), 1.0 μg/mL porcine pancreatic elastase, and different concentrations of chalcone derivatives was preincubated at room temperature for 15 min. Afterwards, the addition of the substrate—SANA—started the reaction. Product formation changes were analyzed at λ = 410 nm for 20 min every 20 s (Epoch, BioTek Instruments, Santa Clara, CA, USA). The control was composed of Tris-HCl buffer (pH 8.0), an appropriate concentration of the chalcone derivative, and SANA.

In brackets after ≈: the same amount, converted by molar mass. Several values for one entry are separate records, joined by “and”; a condition that tells them apart may be missing. Equal values may be shown once.

For `Cc1cc(S(=O)(=O)Nc2ccc(C(=O)/C=C/c3ccc(Br)cc3)cc2)c(Cl)cc1Cl` [Compound 5, (E)-N-{4-[3-(4-Bromophenyl)acryloyl]phenyl}-2,4-Dichloro-5-Methylbenzenesulfonamide], in the series on caspase-8 (1 µg/mL), the caspase-8 relative activity turned out to be 1.16 ± 0.15. The caspase-8 relative activity with caspase-8 (5 µg/mL) was 3.53 ± 0.33. The molecule also came in with a caspase-8 relative activity in the series with caspase-8 (7 µg/mL) of 3.39 ± 0.28. The same molecule returned a caspase-8 relative activity in the series with caspase-8 (10 µg/mL) of 2.99 ± 0.20. The molecule also showed an IC50 in the series with cervical cancer HeLa (Homo sapiens, HeLa, MTT, 24 h treatment) of 5.67 ± 0.35 µg/mL (≈ 10.8 µM). In addition, in the series on cervical cancer HeLa (SI = IC50 noncancer cells/IC50 cancer cells, in relation to human neonatal fibroblasts), the “selectivity index HeLa” value came out at 4.51. For the same molecule, in the series on AGS cells [1], the depolarized/dead cells is listed as 32.71% ± 3.50% and the depolarized/live cells is given as 34.20% ± 2.57%. Further, the viability at 24 h, 10 µg/mL in [2] was 29%. In the series on AGS cells [3] (5 µg/mL), the dead cells was 18.28% ± 1.80% and the late apoptotic cells is 33.92% ± 3.05%. For the same molecule, in the series with AGS cells [3] (10 µg/mL), the dead cells is reported as 22.16% ± 2.04%, the late apoptotic cells is on record as 49.90% ± 2.07% and the “live cells (viability)” value is 26.26% ± 4.03%. Besides, in the series on AGS cells [4] (1 µg/mL), the “cells in G0/G1 phase” value turned out to be 41.4%, the “cells in G2/M phase” value was 43.0% and the “cells in S phase” value was 14.6%. Moreover, in the series on AGS cells [4] (10 µg/mL), the “cells in G1 (G0/G1) phase” value was 34.9% and 34.47% ± 2.87%; the “cells in G2/M phase” value is 23.1% and 21.50% ± 1.50%; the “cells in S phase” value was 15.5% and 13.78% ± 1.70%; the “cells in subG0 phase” value is listed as 27.1% ± 0.87%. In addition, the “% of ABTS radical inhibition” value in [5] amounted to 16.01 ± 0.69%. The molecule further registered an IC50 in series [6] of 25.6 ± 1.04 µg/mL (≈ 48.7 µM). The IC50 at neutrophil elastase is 121 µM.

The IC50 is the concentration that gives 50% inhibition. What is called viability is a per cent measure of how many cells are alive, often set against a control.
